According to PubChem BioAssay AID248 (DTP/NCI, 2004):
“And” between values parts separate entries of the source, which are not always exact repeats. Equal entries are not always repeated. Inconclusive results and toxic doses are left out. Cut-off read from the data, not from the text of the source: active = T/C of 150% or more; inactive = T/C below 125%.

Tested on: L1210 leukemia ip in BDF1 mice, survival T/C
Test: NCI In Vivo Anticancer Drug Screen. Data for tumor model L1210 Leukemia (intraperitoneal) in B6D2F1 (BDF1) mice
Details: higher = longer survival
How it was run: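 Mice bearing the transplanted tumor received compound or vehicle. Survival of the treated group was divided by that of the vehicle-treated control group to give the ratio.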

[1] = endpoint: mean survival time, dose: 100.0 mg/kg/injection, schedule: Q01DX009 (ip), vehicle: saline
[2] = endpoint: mean survival time, dose: 200.0 mg/kg/injection, schedule: Q01DX009 (ip), vehicle: saline
[3] = endpoint: mean survival time, dose: 400.0 mg/kg/injection, schedule: Q01DX009 (ip), vehicle: saline
[4] = endpoint: mean survival time, dose: 50.0 mg/kg/injection, schedule: Q01DX009 (ip), vehicle: saline with Tween-80
[5] = endpoint: mean survival time, dose: 100.0 mg/kg/injection, schedule: Q04DX003 (ip), vehicle: saline with Tween-80
[6] = endpoint: mean survival time, dose: 200.0 mg/kg/injection, schedule: Q04DX003 (ip), vehicle: saline with Tween-80
[7] = endpoint: mean survival time, dose: 100.0 mg/kg/injection, schedule: Q01DX009 (ip), vehicle: saline with Tween-80
[8] = endpoint: mean survival time, dose: 200.0 mg/kg/injection, schedule: Q01DX009 (ip), vehicle: saline with Tween-80
[9] = endpoint: mean survival time, dose: 400.0 mg/kg/injection, schedule: Q01DX009 (ip), vehicle: saline with Tween-80
[10] = endpoint: mean survival time, dose: 400.0 mg/kg/injection, schedule: Q04DX003 (ip), vehicle: saline with Tween-80
[11] = endpoint: mean survival time, dose: 100.0 mg/kg/injection, schedule: Q01DX001 (ip), vehicle: carboxymethylcellulose (CMC)
[12] = endpoint: mean survival time, dose: 50.0 mg/kg/injection, schedule: Q04DX003 (ip), vehicle: saline with Tween-80

Measured: T/C

CCCC(=O)Nc1ncnc2c1ncn2C1OC2COP(=O)(O)OC2C1OC(=O)CCC (centres undefined)
inactive: endpoint: mean survival time, dose: 12.5 mg/kg/injection, schedule: Q01DX009 (ip), vehicle: saline 105 % of control | endpoint: mean survival time, dose: 25.0 mg/kg/injection, schedule: Q01DX009 (ip), vehicle: saline 104 % of control | endpoint: mean survival time, dose: 50.0 mg/kg/injection, schedule: Q01DX009 (ip), vehicle: saline 102 % of control | [1] 102 % of control | [2] 100 % of control | [3] 104 % of control | endpoint: median survival time, dose: 25.0 mg/kg/injection, schedule: Q01DX009 (ip), vehicle: saline 100 % of control | endpoint: median survival time, dose: 50.0 mg/kg/injection, schedule: Q01DX001 (ip), vehicle: saline 100 % of control | endpoint: median survival time, dose: 50.0 mg/kg/injection, schedule: Q01DX009 (ip), vehicle: saline 100 % of control | endpoint: median survival time, dose: 100.0 mg/kg/injection, schedule: Q01DX001 (ip), vehicle: saline 100 % of control | endpoint: median survival time, dose: 100.0 mg/kg/injection, schedule: Q01DX009 (ip), vehicle: saline 100 % of control | endpoint: median survival time, dose: 200.0 mg/kg/injection, schedule: Q01DX001 (ip), vehicle: saline 100 % of control | endpoint: median survival time, dose: 200.0 mg/kg/injection, schedule: Q01DX009 (ip), vehicle: saline 100 % of control | endpoint: median survival time, dose: 400.0 mg/kg/injection, schedule: Q01DX001 (ip), vehicle: saline 100 % of control | endpoint: median survival time, dose: 400.0 mg/kg/injection, schedule: Q01DX009 (ip), vehicle: saline 100 % of control

CCOC(=O)c1c(NC(=O)CCl)ssc1=S
inactive: [4] 103 % of control | [5] 92 % of control | [6] 91 % of control

CC1=CCCC1
inactive: [1] 101 % of control | [2] 95 % of control | [3] 95 % of control

CCOC(=O)CCC(NC(=O)c1ccc(N(C)S(=O)(=O)c2ccc(C)cc2)c2ccccc12)C(=O)OCC (centres undefined)
inactive: [7] 108 % of control | [5] 97 % of control | [8] 94 % of control | [6] 100 % of control | [9] 92 % of control | [10] 100 % of control

O=C1OC(=O)C2C1C1C=CC2C12CC2 (centres undefined)
inactive: [4] 97 % of control | [7] 102 % of control | [8] 105 % of control

COC(=O)CC(=O)c1ccc2ccccc2n1
inactive: endpoint: mean survival time, dose: 50.0 mg/kg/injection, schedule: Q01DX001 (ip), vehicle: carboxymethylcellulose (CMC) 108 % of control | [11] 100 % of control | endpoint: mean survival time, dose: 200.0 mg/kg/injection, schedule: Q01DX001 (ip), vehicle: carboxymethylcellulose (CMC) 97 % of control | endpoint: mean survival time, dose: 400.0 mg/kg/injection, schedule: Q01DX001 (ip), vehicle: carboxymethylcellulose (CMC) 105 % of control

CCCC(O)(CCC)CC(=O)OCC
inactive: endpoint: mean survival time, dose: 200.0 mg/kg/injection, schedule: Q04DX003 (ip), vehicle: saline sonified 106 % of control | endpoint: mean survival time, dose: 400.0 mg/kg/injection, schedule: Q04DX003 (ip), vehicle: saline sonified 90 % of control

CC(C)CCOC(=O)C(Br)c1ccccc1 (centres undefined)
inactive: [7] 95 % of control | [5] 104 % of control | [8] 88 % of control | [6] 99 % of control | [9] 88 % of control | [10] 95 % of control

COc1cc2c(cc1OC)C(Cc1ccc(O)cc1)N(C)CC2 (centres undefined)
inactive: endpoint: mean survival time, dose: 100.0 mg/kg/injection, schedule: Q01DX001 (ip), vehicle: saline 96 % of control | endpoint: mean survival time, dose: 200.0 mg/kg/injection, schedule: Q01DX001 (ip), vehicle: saline 91 % of control

CCN=C(c1ccc(NC(=O)c2ccc(C(=O)Nc3ccc(C(=NCC)N(CC)C(=O)OCC)cc3)cc2)cc1)N(CC)C(=O)OCC
inactive: endpoint: mean survival time, dose: 2.0 mg/kg/injection, schedule: Q01DX015 (ip), vehicle: methylcellulose (MC) 101 % of control | endpoint: mean survival time, dose: 4.0 mg/kg/injection, schedule: Q01DX015 (ip), vehicle: methylcellulose (MC) 104 % of control | endpoint: mean survival time, dose: 8.0 mg/kg/injection, schedule: Q01DX015 (ip), vehicle: methylcellulose (MC) 97 % of control | endpoint: mean survival time, dose: 16.0 mg/kg/injection, schedule: Q01DX015 (ip), vehicle: methylcellulose (MC) 100 % of control | endpoint: mean survival time, dose: 31.0 mg/kg/injection, schedule: Q01DX015 (ip), vehicle: methylcellulose (MC) 102 % of control | endpoint: mean survival time, dose: 62.0 mg/kg/injection, schedule: Q01DX015 (ip), vehicle: methylcellulose (MC) 98 % of control | endpoint: mean survival time, dose: 125.0 mg/kg/injection, schedule: Q01DX015 (ip), vehicle: methylcellulose (MC) 96 % of control | endpoint: mean survival time, dose: 250.0 mg/kg/injection, schedule: Q01DX015 (ip), vehicle: methylcellulose (MC) 95 % of control | endpoint: mean survival time, dose: 375.0 mg/kg/injection, schedule: Q01DX015 (ip), vehicle: methylcellulose (MC) 91 % of control | endpoint: mean survival time, dose: 500.0 mg/kg/injection, schedule: Q01DX015 (ip), vehicle: methylcellulose (MC) 101 % of control

CN(C)c1nn2c(-c3ccccc3)nnc2o1
inactive: [1] 94 % of control | [2] 102 % of control | [3] 100 % of control

CCN(CC)CCOc1cccc(C)c1C
inactive: endpoint: mean survival time, dose: 25.0 mg/kg/injection, schedule: Q01DX009 (ip), vehicle: saline with Tween-80 101 % of control | [4] 101 % of control | [12] 98 % of control | [7] 102 % of control | [5] 90 % of control

CC(C)CCCC(C)CCC1C(=O)NC(=O)NC1=O (centres undefined)
inactive: endpoint: mean survival time, dose: 75.0 mg/kg/injection, schedule: Q01DX001 (ip), vehicle: saline 90 % of control | endpoint: mean survival time, dose: 150.0 mg/kg/injection, schedule: Q01DX001 (ip), vehicle: saline 88 % of control

Nc1c2c(nc3ccccc13)CCCC2
inactive: endpoint: mean survival time, dose: 0.78 mg/kg/injection, schedule: Q04DX003 (ip), vehicle: saline 101 % of control | endpoint: mean survival time, dose: 1.56 mg/kg/injection, schedule: Q01DX009 (ip), vehicle: saline 98 % of control | endpoint: mean survival time, dose: 1.56 mg/kg/injection, schedule: Q04DX003 (ip), vehicle: saline 93 % of control | endpoint: mean survival time, dose: 3.12 mg/kg/injection, schedule: Q01DX009 (ip), vehicle: saline 93 % of control | endpoint: mean survival time, dose: 3.12 mg/kg/injection, schedule: Q04DX003 (ip), vehicle: saline 104 % of control | endpoint: mean survival time, dose: 6.25 mg/kg/injection, schedule: Q04DX003 (ip), vehicle: saline 96 % of control | endpoint: mean survival time, dose: 12.5 mg/kg/injection, schedule: Q04DX003 (ip), vehicle: saline 95 % of control

Clc1cc2c(c3c1CONC3)OCO2
inactive: [5] 92 % of control | [6] 90 % of control | [10] 100 % of control

Clc1ccc2c(OCCN3CC3)ccnc2c1
inactive: [11] 102 % of control

CCCCCCCCCCCCSC(=N)N
inactive: endpoint: mean survival time, dose: 12.5 mg/kg/injection, schedule: Q01DX009 (ip), vehicle: acetone 103 % of control | endpoint: mean survival time, dose: 12.5 mg/kg/injection, schedule: Q04DX003 (ip), vehicle: saline with Tween-80 98 % of control | endpoint: mean survival time, dose: 25.0 mg/kg/injection, schedule: Q01DX009 (ip), vehicle: acetone 95 % of control | endpoint: mean survival time, dose: 25.0 mg/kg/injection, schedule: Q04DX003 (ip), vehicle: saline with Tween-80 100 % of control | endpoint: mean survival time, dose: 25.0 mg/kg/injection, schedule: Q04DX003 (ip), vehicle: saline 104 % of control | endpoint: mean survival time, dose: 35.0 mg/kg/injection, schedule: Q04DX003 (ip), vehicle: saline 89 % of control | [12] 95 % of control | endpoint: mean survival time, dose: 50.0 mg/kg/injection, schedule: Q04DX003 (ip), vehicle: saline 91 % of control | endpoint: mean survival time, dose: 75.0 mg/kg/injection, schedule: Q04DX003 (ip), vehicle: saline 89 % of control | endpoint: mean survival time, dose: 100.0 mg/kg/injection, schedule: Q04DX003 (ip), vehicle: saline 94 % of control and 95 % of control | endpoint: mean survival time, dose: 115.0 mg/kg/injection, schedule: Q04DX003 (ip), vehicle: saline 97 % of control

Cc1c(Cl)cccc1NC(=O)NC(=O)c1ccccc1
inactive: [4] 101 % of control | [7] 108 % of control | [8] 97 % of control
